Assay results: patent publication US8198285B2, “Pyrazine derivatives” (Astrazeneca AB, priority 2010, dated 2012)
Where a name gives a salt, the structure may show the parent alone.

Molecular target: T1, human GSK3β enzyme (Homo sapiens, UniProt P49841)
T1 construct: His6 (N); purchased Millipore 14-306; host or cells: baculovirus / Sf21 insect cells
Experiment: In vitro GSK3β kinase assay (FRET, Z'-LYTE), Test (a)
Format: biochemical
Conditions: read-out: IC50 versus human GSK3β enzyme
Excerpt: This biochemical assay used a Fluorescence Resonance Energy Transfer (FRET)-based, coupled-enzyme format to determine the ability of test compounds to inhibit substrate phosphorylation by recombinant GSK3β serine/threonine kinase (Kleman-Leyer, K. et al. Drug Disc. Devel. 2003, 6:81-2). The substrate used in this assay was Z′-LYTE™ ser/Thr 9 peptide and the FRET assay kit was obtained from Invitrogen (Paisley, UK, catalogue number PV3324). N-terminal His6-tagged recombinant human GSK313, with an H350 L mutation, was expressed in baculovirus in Sf21 insect cells, purified and obtained from Millipore (Billerica, Mass., USA, catalogue number 14-306 Human).
Test compounds were prepared as 10 mM stock solutions in dimethylsulphoxide (DMSO) and diluted in DMSO as required. Aliquots (2.5 μl) of compound dilutions were added to the wells of an Optiplate-F PerkinElmer 384-well plate (Massachusetts, USA, catalogue number 6007270). Control wells that produced a maximum signal corresponding to maximum enzyme activity were created by using 100% phosphorylated peptide obtained from Invitrogen (Paisley, UK, catalogue number PV3326). A 5 μl aliquot of 100% phosphorylated peptide (100 μM in 1.33× kinase buffer) was added to all maximum control wells. 2.5 μl of 4% DMSO solution (v/v) in 1.33× kinase buffer was added to maximum control wells. Control wells that produced a minimum signal corresponding to 100% inhibited enzyme were created by adding 2.5 μl of 40 μM Staurosporine in 1.33× kinase buffer containing 4% DMSO (v/v). A 5 μl mixture of GSK3β (100 ng/μl) enzyme and non-phosphorylated substrate (Z-LYTE™ ser/Thr 9 peptide, 100 μM) in a 1.33× kinase buffer solution was added to each well except maximum control wells and the assay plate centrifuged at 270 g for 1 minute. The kinase buffer used 1.33× was obtained from Invitrogen (Paisley, UK, catalogue number PV3189) and contained 67 mM HEPES (pH 7.5), 13 mM MgCl2, 1.3 mM EGTA, 0.01% BRIJ-35. Then 2.5 μl adenosine triphosphate (28 μM) in kinase buffer was added per well, centrifuged at 270 g for 1 minute and then the assay plate was shaken for 1 hour at room temperature. A proprietary development solution was prepared by adding 58 μl of development reagent A (Invitrogen, Paisley, UK, catalogue number PV3297) to 2142 μl of development reagent B (Invitrogen, Paisley, UK, catalogue number P3127). […]
The resultant signals arising from laser light excitation at 400 nm were read using a Perkin Elmer Envision spectrophotometer (Perkin Elmer, Massachusetts, USA). […] A ratiometric method, which calculates the ratio (the Emission Ratio) of donor emission to acceptor emission after excitation of the donor fluorophore at 400 nm, quantitates reaction progress, as shown in the equation below. […]

T1 sequence (P49841 whole entry): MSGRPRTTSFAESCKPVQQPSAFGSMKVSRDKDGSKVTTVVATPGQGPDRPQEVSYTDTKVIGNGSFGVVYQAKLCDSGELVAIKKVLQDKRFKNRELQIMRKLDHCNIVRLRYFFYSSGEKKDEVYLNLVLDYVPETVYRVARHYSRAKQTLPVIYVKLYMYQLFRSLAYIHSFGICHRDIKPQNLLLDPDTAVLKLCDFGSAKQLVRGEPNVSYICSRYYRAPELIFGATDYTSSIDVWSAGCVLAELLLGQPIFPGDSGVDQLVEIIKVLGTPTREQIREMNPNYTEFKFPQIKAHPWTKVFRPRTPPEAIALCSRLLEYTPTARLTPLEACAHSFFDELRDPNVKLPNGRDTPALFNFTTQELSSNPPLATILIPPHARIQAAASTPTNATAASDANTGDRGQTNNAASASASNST

## COCCCNCCCc1ccc(-c2cnc(N)c(C(=O)Nc3cccnc3)n2)cc1 [Example 1, 3-Amino-6-(4-{3-[(3-methoxypropyl)amino]propyl}phenyl)-N-pyridin-3-ylpyrazine-2-carboxamide tri-hydrochloride]
  IC50: ~35 nM
